Laboratory results from the NIST ThermoML archive (doi:10.1021/acs.jced.9b00248).
Numbers after ± are expanded uncertainties.

Test: mn = molality of the nth substance listed, in mol/kg
Settings: Liquid; for viscosity: Vibrating wire viscometry; for mass density: Vibrating tube method

## [Ca+2].[Cl-].[Cl-] [calcium chloride] + O
274.75 K, 1300 kPa, m1 = 1
  viscosity: 2.142 ± 0.065 mPa·s
274.75 K, 49900 kPa, m1 = 1
  viscosity: 2.117 ± 0.065 mPa·s
274.75 K, 99700 kPa, m1 = 1
  viscosity: 2.096 ± 0.064 mPa·s
274.87 K, 1270 kPa, m1 = 1
  mass density: 1088.12 ± 0.72 kg/m3
274.87 K, 15180 kPa, m1 = 1
  mass density: 1094.18 ± 0.82 kg/m3
274.87 K, 30070 kPa, m1 = 1
  mass density: 1100.27 ± 0.84 kg/m3
274.87 K, 49880 kPa, m1 = 1
  mass density: 1108.27 ± 0.78 kg/m3
274.87 K, 69750 kPa, m1 = 1
  mass density: 1115.89 ± 0.9 kg/m3
274.87 K, 99730 kPa, m1 = 1
  mass density: 1126.88 ± 0.98 kg/m3
274.98 K, 1310 kPa, m1 = 2.5
  mass density: 1201.94 ± 1.2 kg/m3
274.98 K, 15210 kPa, m1 = 2.5
  mass density: 1207.74 ± 1.3 kg/m3
274.98 K, 30100 kPa, m1 = 2.5
  mass density: 1212.77 ± 1.3 kg/m3
274.98 K, 49930 kPa, m1 = 2.5
  mass density: 1219.37 ± 1.4 kg/m3
274.98 K, 69770 kPa, m1 = 2.5
  mass density: 1225.9 ± 1.4 kg/m3
274.98 K, 99750 kPa, m1 = 2.5
  mass density: 1235.53 ± 1.6 kg/m3
296.18 K, 1280 kPa, m1 = 1
  mass density: 1082.39 ± 0.81 kg/m3
296.18 K, 15170 kPa, m1 = 1
  mass density: 1087.93 ± 0.73 kg/m3
296.18 K, 30070 kPa, m1 = 1
  mass density: 1093.68 ± 0.83 kg/m3
296.18 K, 49900 kPa, m1 = 1
  mass density: 1101.19 ± 0.85 kg/m3
296.18 K, 69750 kPa, m1 = 1
  mass density: 1108.4 ± 0.88 kg/m3
296.18 K, 99730 kPa, m1 = 1
  mass density: 1118.84 ± 0.96 kg/m3
296.21 K, 30100 kPa, m1 = 1
  viscosity: 1.224 ± 0.038 mPa·s
296.21 K, 99700 kPa, m1 = 1
  viscosity: 1.237 ± 0.038 mPa·s
296.22 K, 1310 kPa, m1 = 2.5
  mass density: 1192.77 ± 1.2 kg/m3
296.22 K, 15240 kPa, m1 = 2.5
  mass density: 1197.73 ± 1.3 kg/m3
296.22 K, 30130 kPa, m1 = 2.5
  mass density: 1202.82 ± 1.2 kg/m3
296.22 K, 49960 kPa, m1 = 2.5
  mass density: 1209.46 ± 1.3 kg/m3
296.22 K, 69780 kPa, m1 = 2.5
  mass density: 1215.91 ± 1.4 kg/m3
296.22 K, 99740 kPa, m1 = 2.5
  mass density: 1225.32 ± 1.5 kg/m3
323.23 K, 1280 kPa, m1 = 2.5
  mass density: 1179.3 ± 1.2 kg/m3
323.23 K, 15180 kPa, m1 = 2.5
  mass density: 1184.63 ± 1.2 kg/m3
323.23 K, 30060 kPa, m1 = 2.5
  mass density: 1189.89 ± 1.2 kg/m3
323.23 K, 49910 kPa, m1 = 2.5
  mass density: 1196.52 ± 1.3 kg/m3
323.23 K, 69770 kPa, m1 = 2.5
  mass density: 1202.94 ± 1.3 kg/m3
323.23 K, 99730 kPa, m1 = 2.5
  mass density: 1212.15 ± 1.5 kg/m3
323.31 K, 1240 kPa, m1 = 1
  mass density: 1071.6 ± 0.8 kg/m3
323.31 K, 15190 kPa, m1 = 1
  mass density: 1077.19 ± 0.8 kg/m3
323.31 K, 30070 kPa, m1 = 1
  mass density: 1082.81 ± 0.81 kg/m3
323.31 K, 49880 kPa, m1 = 1
  mass density: 1090.06 ± 0.83 kg/m3
323.31 K, 69760 kPa, m1 = 1
  mass density: 1097.04 ± 0.86 kg/m3
323.31 K, 99750 kPa, m1 = 1
  mass density: 1107.2 ± 0.93 kg/m3
323.4 K, 1300 kPa, m1 = 1
  viscosity: 0.736 ± 0.023 mPa·s
323.4 K, 15200 kPa, m1 = 1
  viscosity: 0.734 ± 0.023 mPa·s
323.4 K, 30100 kPa, m1 = 1
  viscosity: 0.732 ± 0.023 mPa·s
323.4 K, 49900 kPa, m1 = 1
  viscosity: 0.728 ± 0.023 mPa·s
323.4 K, 69800 kPa, m1 = 1
  viscosity: 0.725 ± 0.023 mPa·s
348.19 K, 1320 kPa, m1 = 2.5
  mass density: 1165.84 ± 1.2 kg/m3
348.19 K, 15220 kPa, m1 = 2.5
  mass density: 1170.56 ± 1.2 kg/m3
348.19 K, 30110 kPa, m1 = 2.5
  mass density: 1175.97 ± 1.2 kg/m3
348.19 K, 49950 kPa, m1 = 2.5
  mass density: 1182.84 ± 1.2 kg/m3
348.19 K, 69790 kPa, m1 = 2.5
  mass density: 1189.55 ± 1.3 kg/m3
348.19 K, 99790 kPa, m1 = 2.5
  mass density: 1199.01 ± 1.4 kg/m3
348.2 K, 1300 kPa, m1 = 1
  mass density: 1058.82 ± 0.79 kg/m3
348.2 K, 15220 kPa, m1 = 1
  mass density: 1064.57 ± 0.79 kg/m3
348.2 K, 30100 kPa, m1 = 1
  mass density: 1070.33 ± 0.8 kg/m3
348.2 K, 49930 kPa, m1 = 1
  mass density: 1077.65 ± 0.82 kg/m3
348.2 K, 69790 kPa, m1 = 1
  mass density: 1084.72 ± 0.84 kg/m3
348.2 K, 99770 kPa, m1 = 1
  mass density: 1094.89 ± 0.9 kg/m3
373.2 K, 1350 kPa, m1 = 2.5
  mass density: 1151.73 ± 1.2 kg/m3
373.2 K, 15250 kPa, m1 = 2.5
  mass density: 1156.76 ± 1.2 kg/m3
373.2 K, 30140 kPa, m1 = 2.5
  mass density: 1161.97 ± 1.2 kg/m3
373.2 K, 49960 kPa, m1 = 2.5
  mass density: 1168.74 ± 1.2 kg/m3
373.2 K, 69820 kPa, m1 = 2.5
  mass density: 1175.25 ± 1.3 kg/m3
373.2 K, 99780 kPa, m1 = 2.5
  mass density: 1184.69 ± 1.4 kg/m3
373.22 K, 1320 kPa, m1 = 1
  mass density: 1042.78 ± 0.78 kg/m3
373.22 K, 15230 kPa, m1 = 1
  mass density: 1048.82 ± 0.79 kg/m3
373.22 K, 30130 kPa, m1 = 1
  mass density: 1054.88 ± 0.79 kg/m3
373.22 K, 49940 kPa, m1 = 1
  mass density: 1062.61 ± 0.8 kg/m3
373.22 K, 69790 kPa, m1 = 1
  mass density: 1070 ± 0.82 kg/m3
373.22 K, 99790 kPa, m1 = 1
  mass density: 1080.38 ± 0.87 kg/m3
373.45 K, 30100 kPa, m1 = 1
  viscosity: 0.393 ± 0.013 mPa·s
373.45 K, 49900 kPa, m1 = 1
  viscosity: 0.399 ± 0.013 mPa·s
398.26 K, 1360 kPa, m1 = 2.5
  mass density: 1134.93 ± 1.2 kg/m3
398.26 K, 15270 kPa, m1 = 2.5
  mass density: 1140.45 ± 1.2 kg/m3
398.26 K, 30160 kPa, m1 = 2.5
  mass density: 1146.01 ± 1.2 kg/m3
398.26 K, 49970 kPa, m1 = 2.5
  mass density: 1153.12 ± 1.2 kg/m3
398.26 K, 69820 kPa, m1 = 2.5
  mass density: 1159.89 ± 1.3 kg/m3
398.26 K, 99800 kPa, m1 = 2.5
  mass density: 1169.63 ± 1.4 kg/m3
398.28 K, 1320 kPa, m1 = 1
  mass density: 1024.8 ± 0.77 kg/m3
398.28 K, 15230 kPa, m1 = 1
  mass density: 1031.2 ± 0.78 kg/m3
398.28 K, 30120 kPa, m1 = 1
  mass density: 1037.76 ± 0.78 kg/m3
398.28 K, 49940 kPa, m1 = 1
  mass density: 1045.99 ± 0.79 kg/m3
398.28 K, 69780 kPa, m1 = 1
  mass density: 1053.7 ± 0.8 kg/m3
398.28 K, 99790 kPa, m1 = 1
  mass density: 1064.71 ± 0.84 kg/m3
398.33 K, 15200 kPa, m1 = 1
  viscosity: 0.31 ± 0.01 mPa·s
398.33 K, 30100 kPa, m1 = 1
  viscosity: 0.315 ± 0.011 mPa·s
398.33 K, 49900 kPa, m1 = 1
  viscosity: 0.321 ± 0.011 mPa·s
423.46 K, 1400 kPa, m1 = 1
  viscosity: 0.255 ± 0.009 mPa·s
423.46 K, 50000 kPa, m1 = 1
  viscosity: 0.266 ± 0.009 mPa·s
423.46 K, 69800 kPa, m1 = 1
  viscosity: 0.272 ± 0.009 mPa·s
423.6 K, 1340 kPa, m1 = 1
  mass density: 1004.42 ± 0.76 kg/m3
423.6 K, 1360 kPa, m1 = 2.5
  mass density: 1116.33 ± 1.2 kg/m3
423.6 K, 15250 kPa, m1 = 1
  mass density: 1011.3 ± 0.77 kg/m3
423.6 K, 15260 kPa, m1 = 2.5
  mass density: 1122.22 ± 1.2 kg/m3
423.6 K, 30150 kPa, m1 = 1
  mass density: 1018.56 ± 0.77 kg/m3
423.6 K, 30150 kPa, m1 = 2.5
  mass density: 1128.37 ± 1.2 kg/m3
423.6 K, 49950 kPa, m1 = 1
  mass density: 1027.46 ± 0.78 kg/m3
423.6 K, 49980 kPa, m1 = 2.5
  mass density: 1136 ± 1.2 kg/m3
423.6 K, 69810 kPa, m1 = 2.5
  mass density: 1143.19 ± 1.3 kg/m3
423.6 K, 69820 kPa, m1 = 1
  mass density: 1035.71 ± 0.79 kg/m3
423.6 K, 99790 kPa, m1 = 2.5
  mass density: 1153.51 ± 1.3 kg/m3
423.6 K, 99810 kPa, m1 = 1
  mass density: 1047.43 ± 0.81 kg/m3
448.43 K, 1400 kPa, m1 = 1
  viscosity: 0.226 ± 0.008 mPa·s
448.43 K, 69800 kPa, m1 = 1
  viscosity: 0.235 ± 0.008 mPa·s
448.83 K, 1360 kPa, m1 = 2.5
  mass density: 1096.34 ± 1.2 kg/m3
448.83 K, 15250 kPa, m1 = 2.5
  mass density: 1102.89 ± 1.2 kg/m3
448.83 K, 30150 kPa, m1 = 2.5
  mass density: 1109.65 ± 1.2 kg/m3
448.83 K, 49970 kPa, m1 = 2.5
  mass density: 1117.84 ± 1.2 kg/m3
448.83 K, 69820 kPa, m1 = 2.5
  mass density: 1125.62 ± 1.2 kg/m3
448.83 K, 99830 kPa, m1 = 2.5
  mass density: 1136.51 ± 1.3 kg/m3
448.84 K, 1360 kPa, m1 = 1
  mass density: 982.19 ± 0.75 kg/m3
448.84 K, 15270 kPa, m1 = 1
  mass density: 989.78 ± 0.76 kg/m3
448.84 K, 30160 kPa, m1 = 1
  mass density: 997.78 ± 0.76 kg/m3
448.84 K, 49980 kPa, m1 = 1
  mass density: 1007.39 ± 0.76 kg/m3
448.84 K, 69830 kPa, m1 = 1
  mass density: 1016.54 ± 0.77 kg/m3
448.84 K, 99810 kPa, m1 = 1
  mass density: 1029.19 ± 0.78 kg/m3
